Molecules are shown by their SMILES. Values joined by “and” are separate entries in the source; they are usually repeats but may differ in a detail not shown here. Equal values may be shown once. Some results are limits rather than exact numbers.

For orientation: IC50 means the concentration that inhibits the measured activity by half. As usually defined, the viability, T/C is the result in the treated group divided by that in the control group, in per cent.

The test system of the test is 323965-272-R-J2-PDC complex spheroid viability. Kind of test: Anticancer human tumor 323965-272-R-J2-PDC patient-derived pancreatic carcinoma cell line growth inhibition [CLK]. To be noted: for viability, T/C: stronger effect = lower value. The gist of the method: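 Multi-cell-type spheroids combined patient-derived tumor cells with HUVEC endothelial cells and human mesenchymal stem cells. Paired agents were dosed in half-log steps down from about clinical Cmax, or from 10 microM where Cmax was unknown.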

Where [1] appears, read: curve of first compound, second compound 0.0316 µM.
The mark [2] stands for this setting: curve of first compound, second compound 0.1 µM.
[3] abbreviates: curve of first compound, second compound 0.316 µM.
[4] abbreviates: curve of first compound, second compound 1 µM.
Setting [5] is: curve of first compound, second compound 3.16 µM.
Where [6] appears, read: curve of first compound, second compound 10 µM.
Where [7] appears, read: second compound 0.0316 µM, first compound 0.0316 µM.
[8] abbreviates: second compound 0.0316 µM, first compound 0.1 µM.
Where [9] appears, read: second compound 0.0316 µM, first compound 0.316 µM.
Setting [10] is: second compound 0.0316 µM, first compound 1 µM.
[11] abbreviates: second compound 0.0316 µM, first compound 3.16 µM.
Where [12] appears, read: second compound 0.0316 µM, first compound 10 µM.
Where [13] appears, read: second compound 0.1 µM, first compound 0.0316 µM.
Setting [14] is: second compound 0.1 µM, first compound 0.1 µM.
Where [15] appears, read: second compound 0.1 µM, first compound 0.316 µM.
The mark [16] stands for this setting: second compound 0.1 µM, first compound 1 µM.
[17] abbreviates: second compound 0.1 µM, first compound 3.16 µM.
[18] abbreviates: second compound 0.1 µM, first compound 10 µM.
[19] abbreviates: second compound 0.316 µM, first compound 0.0316 µM.
[20] abbreviates: second compound 0.316 µM, first compound 0.1 µM.
[21] abbreviates: second compound 0.316 µM, first compound 0.316 µM.
The mark [22] stands for this setting: second compound 0.316 µM, first compound 1 µM.
Where [23] appears, read: second compound 0.316 µM, first compound 3.16 µM.
[24] abbreviates: second compound 0.316 µM, first compound 10 µM.
[25] abbreviates: second compound 1 µM, first compound 0.0316 µM.
[26] abbreviates: second compound 1 µM, first compound 0.1 µM.
The mark [27] stands for this setting: second compound 1 µM, first compound 0.316 µM.
Setting [28] is: second compound 1 µM, first compound 1 µM.
[29] abbreviates: second compound 1 µM, first compound 3.16 µM.
The mark [30] stands for this setting: second compound 1 µM, first compound 10 µM.
The mark [31] stands for this setting: second compound 3.16 µM, first compound 0.0316 µM.
[32] abbreviates: second compound 3.16 µM, first compound 0.1 µM.
The mark [33] stands for this setting: second compound 3.16 µM, first compound 0.316 µM.
Where [34] appears, read: second compound 3.16 µM, first compound 1 µM.
The mark [35] stands for this setting: second compound 3.16 µM, first compound 3.16 µM.
The mark [36] stands for this setting: second compound 3.16 µM, first compound 10 µM.
[37] abbreviates: second compound 10 µM, first compound 0.0316 µM.
[38] abbreviates: second compound 10 µM, first compound 0.1 µM.
Where [39] appears, read: second compound 10 µM, first compound 0.316 µM.
Setting [40] is: second compound 10 µM, first compound 1 µM.
Setting [41] is: second compound 10 µM, first compound 3.16 µM.
The mark [42] stands for this setting: second compound 10 µM, first compound 10 µM.
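Also: spheroids exposed to agents for seven days before readout.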
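For viability, T/C in this document: percent of DMSO vehicle control wells so 100% = untreated growth.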

As for `O=C(c1cc(Cc2n[nH]c(=O)c3ccccc23)ccc1F)N1CCN(C(=O)C2CC2)CC1` + CNC(=O)c1ccc(Nc2nc(OC3CCCC3)c3c(-c4ccc5nc(C)oc5c4)c[nH]c3n2)c(OC)c1, the IC50 runs as follows: under setting [1], over 10000 nM; under setting [2], over 10000 nM; under setting [3], over 10000 nM; under setting [4], over 10000 nM; under setting [5], under 31.6 nM; under setting [6], under 31.6 nM. Besides, the viability, T/C by setting is: under setting [7], 129%; under setting [8], 115%; under setting [9], 107%; under setting [10], 105%; under setting [11], 117%; under setting [12], 92%. The viability, T/C reads like this: under setting [13], 101%; under setting [14], 93.4%; under setting [15], 94.4%; under setting [16], 95.4%; under setting [17], 88.6%; under setting [18], 82.2%. For the same molecule, the viability, T/C runs as follows: under setting [19], 64.3%; under setting [20], 64.4%; under setting [21], 57.9%; under setting [22], 61.8%; under setting [23], 73.2%; under setting [24], 63.1%. Further, the viability, T/C reads like this: under setting [25], 55.4%; under setting [26], 47.4%; under setting [27], 51.5%; under setting [28], 53.4%; under setting [29], 51.3%; under setting [30], 52.5%. The viability, T/C is 44% under setting [31]; 52.6% under setting [32]; 46.8% under setting [33]; 48.3% under setting [34]; 40% under setting [35]; 48.8% under setting [36]. The viability, T/C under setting [37] is 44.3%; the viability, T/C under setting [38] is 44.7%; the viability, T/C under setting [39] is 44.5%; the viability, T/C under setting [40] was 43.8%; the viability, T/C under setting [41] was 46.7%; the viability, T/C under setting [42] was 53.4%.

With `CC(Nc1ccc2c(c1)OCCn1cc(N3C(=O)OCC3C(F)F)nc1-2)C(N)=O` (stereo unspecified), the viability, T/C by setting is: (compound 0.0316 µM) 94.2% and 96.6%; (compound 0.1 µM) 89.2% and 83.2%; (compound 0.316 µM) 76.2% and 66.7%; (compound 1 µM) 67.8% and 65.5%; (compound 3.16 µM) 63.1% and 68.3%; (compound 10 µM) 50.9% and 47.6%. Moreover, the IC50 (curve of compound) is over 10000 nM.

As for `CC(=O)O[C@H]1C(=O)[C@@]2(C)[C@H]([C@H](OC(=O)c3ccccc3)[C@]3(O)C[C@H](OC(=O)[C@H](O)[C@@H](NC(=O)c4ccccc4)c4ccccc4)C(C)=C1C3(C)C)[C@]1(OC(C)=O)CO[C@@H]1C[C@@H]2O` + CN1CCN(c2cc(C(=O)Nc3cc4cc(-c5cnn(C)c5)ccc4cn3)ccn2)CC1, the concentration for half-maximal inhibition (IC50) reads like this: under setting [1], under 31.6 nM; under setting [2], under 31.6 nM; under setting [3], under 31.6 nM; under setting [4], under 31.6 nM; under setting [5], under 31.6 nM; under setting [6], under 31.6 nM. The viability, T/C was 33.2% under setting [7]; 34.3% under setting [8]; 31.7% under setting [9]; 33% under setting [10]; 34.8% under setting [11]; 30.4% under setting [12]. Moreover, the viability, T/C by setting is: under setting [13], 28.3%; under setting [14], 28.1%; under setting [15], 24.7%; under setting [16], 25.9%; under setting [17], 26.7%; under setting [18], 28.5%. In addition, the viability, T/C under setting [19] is 19.8%; the viability, T/C under setting [20] was 19.3%; the viability, T/C under setting [21] is 19%; the viability, T/C under setting [22] was 19.5%; the viability, T/C under setting [23] is 17.2%; the viability, T/C under setting [24] was 16.9%. The viability, T/C under setting [25] is 3.79%; the viability, T/C under setting [26] is 3.19%; the viability, T/C under setting [27] is 3.35%; the viability, T/C under setting [28] is 2.94%; the viability, T/C under setting [29] was 3.34%; the viability, T/C under setting [30] was 3.64%. Also, the viability, T/C runs as follows: under setting [31], 3.67%; under setting [32], 6.44%; under setting [33], 4.39%; under setting [34], 4.7%; under setting [35], 3.88%; under setting [36], 5.16%. Also, the viability, T/C reads like this: under setting [37], 4.53%; under setting [38], 4.6%; under setting [39], 4.22%; under setting [40], 3.5%; under setting [41], 3.95%; under setting [42], 3.79%.

For the molecule `CC(C)CC(NC(=O)C(Cc1ccccc1)NC(=O)c1cnccn1)B(O)O` (stereo unspecified), the viability, T/C is, setting by setting: (compound 0.000949 µM) 107% and 115%; (compound 0.003 µM) 75.1% and 49.5%; (compound 0.00949 µM) 5.4% and 2.55%; (compound 0.03 µM) 0.66% and 1.05%; (compound 0.0949 µM) 0.26% and 0.62%; (compound 0.3 µM) 2% and 3.78%. In addition, for the setting “curve of compound”, the IC50 is 4.54 nM and 2.98 nM.

With `NC(=O)C(=Cn1cnc(-c2cc(C(F)(F)F)cc(C(F)(F)F)c2)n1)c1cncnc1`, the viability, T/C (compound 0.00949 µM) is 97.4% and 105%; the viability, T/C (compound 0.03 µM) is 109% and 91.9%; the viability, T/C (compound 0.0949 µM) is 74.2% and 75.9%; the viability, T/C (compound 0.3 µM) was 64.3% and 66.8%; the viability, T/C (compound 0.949 µM) is 69.2% and 61.7%; the viability, T/C (compound 3 µM) was 38.3% and 28.5%. For the same molecule, the IC50 (curve of compound) was 1690 nM and 1060 nM.

Consider `CN1CCN(c2cc(C(=O)Nc3cc4cc(-c5cnn(C)c5)ccc4cn3)ccn2)CC1`, for which the viability, T/C (compound 0.0316 µM) is 98.9% [middle of 12 runs]; the viability, T/C (compound 0.1 µM) was 70% [middle of 12 runs]; the viability, T/C (compound 0.316 µM) is 28.1% [middle of 12 runs]; the viability, T/C (compound 1 µM) is 4.53% [middle of 12 runs]; the viability, T/C (compound 3.16 µM) is 4.75% [middle of 12 runs]; the viability, T/C (compound 10 µM) is 4.22% [middle of 11 runs]. Also, under “compound alone, run of 08/14/2023”, the IC50 was 174 nM [middle of 10 runs].

`CC(CO)NC(=O)c1cc(-c2ccc(Cl)cc2)nn(-c2cnn(C)c2)c1=O` (stereo unspecified) + CN1CCN(c2cc(C(=O)Nc3cc4cc(-c5cnn(C)c5)ccc4cn3)ccn2)CC1: the IC50 is over 10000 nM under setting [1]; over 10000 nM under setting [2]; under 31.6 nM under setting [3]; under 31.6 nM under setting [4]; under 31.6 nM under setting [5]; under 31.6 nM under setting [6]. In addition, the viability, T/C under setting [7] was 97.3%; the viability, T/C under setting [8] is 102%; the viability, T/C under setting [9] is 103%; the viability, T/C under setting [10] was 87.4%; the viability, T/C under setting [11] was 112%; the viability, T/C under setting [12] was 113%. Besides, the viability, T/C was 68% under setting [13]; 80.5% under setting [14]; 83.1% under setting [15]; 72.5% under setting [16]; 76% under setting [17]; 89.5% under setting [18]. Moreover, the viability, T/C by setting is: under setting [19], 25.8%; under setting [20], 27.2%; under setting [21], 25%; under setting [22], 22.3%; under setting [23], 28.2%; under setting [24], 32.8%. Also, the viability, T/C reads like this: under setting [25], 3.75%; under setting [26], 3.59%; under setting [27], 4.21%; under setting [28], 3.61%; under setting [29], 3.03%; under setting [30], 3.2%. The viability, T/C reads like this: under setting [31], 4.17%; under setting [32], 3.62%; under setting [33], 3.4%; under setting [34], 3.82%; under setting [35], 4.87%; under setting [36], 4.3%. Further, the viability, T/C under setting [37] was 4.55%; the viability, T/C under setting [38] was 5.29%; the viability, T/C under setting [39] was 4.22%; the viability, T/C under setting [40] was 3.24%; the viability, T/C under setting [41] was 3.64%; the viability, T/C under setting [42] is 3.17%.

Consider `Nc1ccn(C2OC(CO)C(O)C2(F)F)c(=O)n1` (stereo unspecified), for which the viability, T/C was 30.7% and 33.9% (compound 0.0316 µM); 35.3% and 38.5% (compound 0.1 µM); 30% and 29.5% (compound 0.316 µM); 37.3% and 32.3% (compound 1 µM); 32.7% and 31.5% (compound 3.16 µM); 28.6% and 33.3% (compound 10 µM). The IC50 (curve of compound) was under 31.6 nM.

For the origin of these results see PubChem BioAssay AID2060619 (Molecular Pharmacology Branch, DTP, NCI, 2025).
